Here are results for one compound from article PMC12406256, “Food Additives Inhibit Intestinal Drug Transporters but Have Limited Effect on In Vitro Drug Permeability” (Molecular Pharmaceutics, 2025).

Molecules are shown by their SMILES. Read-outs that look alike come from different tables or passages of the source. Where only a bound is given, the exact number is not on record here.

Data set [1] relates to Caco-2 cells. Kind of data set: in vitro. To be noted: Caco-2. As for the experimental part:
Caco-2 cells were cultured on 12-well Transwell polycarbonate membrane inserts with a 0.4 μm pore size (Corning Incorporated, Kennebunk, ME) at 37 °C and 5% CO2 for 21–24 days prior to the experiment as described in Hubatsch et al. The culture medium (DMEM, 10% FBS, 1% MEM nonessential amino acids, 100 U/mL penicillin–streptomycin) was changed every second day. Transepithelial electrical resistance (TEER) was measured before and after the permeability assay with a Millicell-ERS electrode (Millipore, Bedford, MA) attached to an epithelial volt ohm meter (EVOM, World Precision Instruments, Sarasota, FL). The permeability assay was performed according to a previously published protocol. […] Sulfasalazine is a substrate of BCRP and OATP2B1. , The DMSO concentration was 0.45–1.5%. Before the experiment, inserts were washed and preincubated in the transport buffer for 20 min shaking at 37 °C. Sulfasalazine and LY permeability was measured in the apical to basolateral direction at five time points (20, 40, 60, 90, and 120 min) and, additionally, in the basolateral to apical direction to calculate the efflux ratio. […] […] LY (250 μM) was added on the donor side of all inserts to measure the integrity of the cell monolayer. Before analysis, samples were centrifuged at 2755g for 30 min, and donor solution and mass balance samples were diluted 1:100. LY fluorescence was measured with a Varioskan LUX microplate reader (Thermo Fisher Scientific) at 430 nm excitation and 538 nm emission. Sulfasalazine was analyzed with ultra-performance liquid chromatography (UPLC) using a Syncronis C18 column (1.7 μm particle size, 50 × 2.1 mm + 0.2 μm Waters online filter) (Thermo Fisher Scientific) coupled with Waters Acquity UPLC interfaced with a PDA detector both controlled by the Waters Empower software version 3. The UPLC was operated in gradient mode at 354 nm. Solvents were 0.015 M phosphate buffer pH 2 (A), acetonitrile (B), 1:1 acetonitrile/methanol (strong needle wash), and 20% acetonitrile (weak needle wash). Column temperature was 30 °C, injection volume was 10 μL, retention time was 1.46 min, and flow rate was 0.5 mL/min. The gradient was 25% B → 70% B (0–3 min), 70% B → 25% B (3.00–3.01 min), and 25% B (3.01–4 min). The data were collected for the first 180 s of each UPLC run.
In the Caco-2 permeability assay, the apparent permeability (P app) of sulfasalazine was calculated using the following equation: Papp=(dQ/dt)(1/A×C0) where dQ/dt is the rate of permeation across the cells (nmol/min), A is the surface area of the filter (1.12 cm^2), and C 0 is the initial concentration in the donor chamber (μM). The efflux ratio of sulfasalazine was calculated by dividing the P app in the basolateral to the apical direction by the P app in the apical to basolateral direction. The TEER for each cell insert was calculated before and after the experiment by multiplying the mean resistance of three measurements by the surface area of the filter (1.12 cm^2). Mass balance was calculated by dividing the […]. All experiments were done in triplicate wells, and the IC50 and Caco-2 permeability assays were repeated three times.

For another data set, the target named is T1, OATP2B1 (Homo sapiens, UniProt O94956).
T1 construct: expressed in transfected cells; host or cells: HEK293 cells (ATCC) transduced with recombinant OATP2B1 baculovirus
T1 sequence (O94956 1-709): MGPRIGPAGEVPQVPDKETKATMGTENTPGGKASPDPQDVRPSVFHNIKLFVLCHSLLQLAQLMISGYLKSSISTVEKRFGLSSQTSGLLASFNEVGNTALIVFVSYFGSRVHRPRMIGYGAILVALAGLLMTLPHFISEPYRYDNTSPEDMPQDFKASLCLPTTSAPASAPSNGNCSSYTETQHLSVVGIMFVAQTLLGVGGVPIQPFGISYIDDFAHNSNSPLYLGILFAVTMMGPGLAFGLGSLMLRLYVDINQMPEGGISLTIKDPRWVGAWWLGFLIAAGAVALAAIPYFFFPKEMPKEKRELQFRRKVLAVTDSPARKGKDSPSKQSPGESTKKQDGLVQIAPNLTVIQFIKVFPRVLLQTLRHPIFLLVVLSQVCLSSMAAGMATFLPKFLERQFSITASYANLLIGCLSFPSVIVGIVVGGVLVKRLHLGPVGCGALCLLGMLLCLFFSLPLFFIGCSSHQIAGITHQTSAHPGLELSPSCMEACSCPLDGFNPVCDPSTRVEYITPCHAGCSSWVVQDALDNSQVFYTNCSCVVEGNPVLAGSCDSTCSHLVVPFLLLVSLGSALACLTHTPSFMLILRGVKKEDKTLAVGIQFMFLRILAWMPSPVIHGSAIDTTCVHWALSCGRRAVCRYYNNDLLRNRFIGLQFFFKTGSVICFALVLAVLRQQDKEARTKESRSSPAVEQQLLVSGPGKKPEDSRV
Conditions: previously characterized inhibitors, ref previous studies, cited from earlier work.

In data set [2] the test system is Caco-2 cells. Also noted: method as in not given. To be noted: ref not given; cited from earlier work.
On the set-up of data set [3]: method as in not given. Conditions: rats; ref not given; cited from earlier work.
For a further data set, the target named is T2, BCRP (Homo sapiens, UniProt Q9UNQ0).
T2 sequence (Q9UNQ0 1-655): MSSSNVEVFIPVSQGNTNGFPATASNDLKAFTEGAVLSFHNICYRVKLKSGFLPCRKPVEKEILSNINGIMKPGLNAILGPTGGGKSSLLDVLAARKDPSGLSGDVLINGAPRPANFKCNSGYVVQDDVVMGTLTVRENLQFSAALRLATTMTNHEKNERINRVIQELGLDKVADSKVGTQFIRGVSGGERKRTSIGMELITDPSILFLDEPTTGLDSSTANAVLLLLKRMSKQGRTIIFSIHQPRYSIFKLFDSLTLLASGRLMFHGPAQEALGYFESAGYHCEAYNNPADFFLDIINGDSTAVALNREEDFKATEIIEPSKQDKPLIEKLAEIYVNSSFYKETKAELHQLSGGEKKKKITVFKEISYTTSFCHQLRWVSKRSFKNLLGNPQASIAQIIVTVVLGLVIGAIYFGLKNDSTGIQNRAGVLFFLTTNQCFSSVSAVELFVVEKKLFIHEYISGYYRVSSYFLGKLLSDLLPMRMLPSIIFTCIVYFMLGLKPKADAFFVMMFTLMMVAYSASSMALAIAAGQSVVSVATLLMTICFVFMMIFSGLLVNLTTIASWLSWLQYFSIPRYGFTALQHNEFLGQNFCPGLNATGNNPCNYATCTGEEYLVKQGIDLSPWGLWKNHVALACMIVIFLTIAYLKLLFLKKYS
To be noted: read-out: IC50 (95% CI), BCRP; previously characterized inhibitors; ref previous studies; cited from earlier work.

In the case of `COc1ccc(CCC(=O)c2c(O)cc(O[C@@H]3O[C@H](CO)[C@@H](O)[C@H](O)[C@H]3O[C@@H]3O[C@@H](C)[C@H](O)[C@@H](O)[C@H]3O)cc2O)cc1O` [neohesperidin DC], the “effect on sulfasalazine permeability (P app)” value with Caco-2 cells [1] is “None of the selected food additives showed any effect”. Also, the IC50 was 15.5 µM on OATP2B1 (pH 5.5, read-out: IC50, OATP2B1, pH 5.5); 48.6 µM on OATP2B1 (pH 7.4, read-out: IC50, OATP2B1, pH 7.4); 0.86 µM on BCRP. Also, at OATP2B1 (read-out: K i, OATP2B1), the Ki is 20.1 µM. The “P app in Caco-2 cells” value in the data set with Caco-2 cells [2] is < 6 × 10^–6 cm/s. The oral bioavailability in data set [3] is given as roughly 20%.
